This test addresses Human DGAT2 (hDGAT2) (Homo sapiens (Human), UniProt Q96PD7). Nature of the test: In vitro DGAT2 assay, IC50 determination with hDGAT2 membrane fraction. Format: biochemical. A digest of the protocol: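 CHAPS-solubilized membrane fraction of FLAG-tagged hDGAT2 from baculovirus-infected SF9 cells (0.01 mg/mL) in 100 mM Hepes-NaOH pH 7.4, 20 mM MgCl2, 200 nM methyl arachidonyl fluorophosphonate; compounds pre-incubated 20 min with 0.04% BSA. Reaction 40 min at room temperature, stopped with H3PO4. [^14C]tridecanoylglycerol in organic phase counted; 11-point geometric mean IC50.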

Setting [1] is: geometric mean, background for complete inhibition of DGAT2 obtained with 50 μM (1R,2R)-2-({3′-Fluoro-4′-[(6-fluoro-1,3-benzothiazol-2-yl)amino]-1,1′-biphenyl-4-yl}carbonyl)cyclopentanecarboxylic acid, read-out: DGAT2 IC50.

SMILES strings stand for the structures. Counter-ions that a name gives are not always drawn. Like-named read-outs stand apart in the source and are kept apart here.

Chain of Human DGAT2 (hDGAT2) (Q96PD7 whole entry): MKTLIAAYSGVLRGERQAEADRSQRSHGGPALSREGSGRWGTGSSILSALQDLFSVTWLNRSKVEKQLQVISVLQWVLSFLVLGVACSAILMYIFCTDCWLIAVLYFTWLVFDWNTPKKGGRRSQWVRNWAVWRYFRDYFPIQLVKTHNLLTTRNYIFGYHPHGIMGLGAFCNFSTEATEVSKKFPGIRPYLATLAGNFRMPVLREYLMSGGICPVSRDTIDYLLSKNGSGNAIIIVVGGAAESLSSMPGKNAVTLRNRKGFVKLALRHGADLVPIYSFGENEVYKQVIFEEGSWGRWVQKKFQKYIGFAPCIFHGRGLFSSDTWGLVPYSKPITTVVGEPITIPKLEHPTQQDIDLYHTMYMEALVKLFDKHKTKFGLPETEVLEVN

As to `O=C([C@@H]1CCCN(c2ccc3nc(-c4ccnc(C5CC5)n4)[nH]c3n2)C1)N1CC[C@@H](F)C1` [Example 69, ((R)-1-(2-(2-Cyclopropylpyrimidin-4-yl)-3H-imidazo[4,5-b]pyridin-5-yl)piperidin-3-yl)((R)-3-fluoropyrrolidin-1-yl)methanone], the IC50 (as a rule, the concentration at which inhibition is half-maximal) under setting [1] is 35.4 nM.

Turning to `C[C@@H]1CCN(c2ncc3nc(C4(n5cccn5)CC4)[nH]c3n2)C[C@@H]1C(=O)N1CCCC1` [Example 207, ((3R,4R)-1-(8-(1-(1H-Pyrazol-1-yl)cyclopropyl)-9H-purin-2-yl)-4-methylpiperidin-3-yl)(pyrrolidin-1-yl)methanone], the IC50 under setting [1] is 702 nM.

With `COc1cnn(C2(c3nc4ccc(N5CCC[C@@H](C(=O)N6CCCC6)C5)nc4[nH]3)CC2)c1` [Example 194, (R)-(1-(2-(1-(4-Methoxy-1H-pyrazol-1-yl)cyclopropyl)-3H-imidazo[4,5-b]pyridin-5-yl)piperidin-3-yl)(pyrrolidin-1-yl)methanone], the half-inhibitory concentration (IC50) under setting [1] came out at 101 nM.

As for `CN(C)c1cccc(-c2nc3ccc(N4CCC[C@@H](C(=O)N5CCCC5)C4)nc3[nH]2)n1` [Example 119, (R)-(1-(2-(6-(Dimethylamino)pyridin-2-yl)-3H-imidazo[4,5-b]pyridin-5-yl)piperidin-3-yl)(pyrrolidin-1-yl)methanone], under setting [1], the IC50 was 22.2 nM.

In the case of `O=C([C@@H]1CCCN(c2ccc3nc(-c4ccccc4F)[nH]c3n2)C1)N1CCCC1` [Example 21, (R)-(1-(2-(2-Fluorophenyl)-3H-imidazo[4,5-b]pyridin-5-yl)piperidin-3-yl)(pyrrolidin-1-yl)methanone], the IC50 under setting [1] worked out at 346 nM.

As to `C[C@H]1CCN(c2ccc3nc(-c4cccc(OC(F)F)c4)[nH]c3n2)C[C@H]1C(=O)N(C)C` [Example 181, (3S,4S)-1-(2-(3-(difluoromethoxy)phenyl)-3H-imidazo[4,5-b]pyridin-5-yl)-N,N,4-trimethylpiperidine-3-carboxamide], for the setting “read-out: DGAT2 IC50”, the IC50 was determined as 17400 nM.

As to `O=C([C@@H]1CCCN(c2ccc3nc(C4(n5cccn5)CC4)[nH]c3n2)C1)N1CCCC1` [Example 79, (R)-(1-(2-(1-(1H-Pyrazol-1-yl)cyclopropyl)-3H-imidazo[4,5-b]pyridin-5-yl)piperidin-3-yl)(pyrrolidin-1-yl)methanone], the IC50 runs as follows: under setting [1], 230 nM; (geometric mean, background for complete inhibition of DGAT2 obtained with Example 196-A instead of the cyclopentanecarboxylic acid reference, read-out: DGAT2 IC50 (nM), values in the parentheses) 238 nM.

As to `O=C([C@@H]1CCCN(c2ccc3nc(C4(n5cc(Cl)cn5)CC4)[nH]c3n2)C1)N1CC=CC1` [Example 212, (R)-(1-(2-(1-(4-Chloro-1H-pyrazol-1-yl)cyclopropyl)-3H-imidazo[4,5-b]pyridin-5-yl)piperidin-3-yl)(2,5-dihydro-1H-pyrrol-1-yl)methanone], under setting [1], the IC50 stood at 18.9 nM.

For the compound `C[C@@H]1CCCN1C(=O)[C@@H]1CCCN(c2ccc3nc(-c4ccnc(C5CC5)n4)[nH]c3n2)C1` [Example 67, ((R)-1-(2-(2-Cyclopropylpyrimidin-4-yl)-3H-imidazo[4,5-b]pyridin-5-yl)piperidin-3-yl)((R)-2-methylpyrrolidin-1-yl)methanone], the IC50 under setting [1] worked out at 58.2 nM.

Regarding `C[C@@H]1CCCN1C(=O)[C@@H]1CCCN(c2ccc3nc(C4(n5cc(Cl)cn5)CC4)[nH]c3n2)C1` [Example 201, ((R)-1-(2-(1-(4-Chloro-1H-pyrazol-1-yl)cyclopropyl)-3H-imidazo[4,5-b]pyridin-5-yl)piperidin-3-yl)((R)-2-methylpyrrolidin-1-yl)methanone], the IC50 under setting [1] was found to be 91 nM.

As for `O=C1COc2ccc(-c3nc4ccc(N5CCC[C@@H](C(=O)N6CCCC6)C5)nc4[nH]3)cc2N1` [Example 27, (R)-6-(5-(3-(Pyrrolidine-1-carbonyl)piperidin-1-yl)-3H-imidazo[4,5-b]pyridin-2-yl)-2H-benzo[b][1,4]oxazin-3(4H)-one], the IC50 under setting [1] worked out at 1390 nM.

In the case of `O=C(C1CCCC1)N1CCCC(c2nc3ccc(N4CCC[C@@H](C(=O)N5CCCC5)C4)nc3[nH]2)C1` (stereo partly drawn) [Example 62], under setting [1], the IC50 stood at 241 nM.

Turning to `O=C([C@@H]1CCCN(c2ccc3nc(-c4cccc(OC(F)(F)F)c4)[nH]c3n2)C1)N1CCCC1` [Example 1, (R)-Pyrrolidin-1-yl(1-(2-(3-(trifluoromethoxy)phenyl)-3H-imidazo[4,5-b]pyridin-5-yl)piperidin-3-yl)methanone], the IC50 under setting [1] is 1.7 nM.

Regarding `O=C([C@@H]1CCCN(c2ccc3nc(C4(c5ccncc5)CC4)[nH]c3n2)C1)N1CCCC1` [Example 161, (R)-(1-(2-(1-(Pyridin-4-yl)cyclopropyl)-3H-imidazo[4,5-b]pyridin-5-yl)piperidin-3-yl)(pyrrolidin-1-yl)methanone], under setting [1], the IC50 came to 218 nM.

For `CCOC(=O)c1cc(CC)nc(-c2nc3ccc(N4CCC[C@@H](C(=O)N5CCCC5)C4)nc3[nH]2)c1` [Example 105, (R)-Ethyl 2-ethyl-6-(5-(3-(pyrrolidine-1-carbonyl)piperidin-1-yl)-3H-imidazo[4,5-b]pyridin-2-yl)isonicotinate], under setting [1], the IC50 worked out at 28.9 nM.

`O=C([C@@H]1CCCN(c2ccc3nc([C@H]4C[C@H]4c4ccccc4)[nH]c3n2)C1)N1CCCC1` [Example 18, ((R)-1-(2-((1S,2R)-2-Phenylcyclopropyl)-3H-imidazo[4,5-b]pyridin-5-yl)piperidin-3-yl)(pyrrolidin-1-yl)methanone]: under setting [1], the IC50 was 196 nM.

Take `CS(=O)(=O)Nc1cccc(-c2nc3ccc(N4CCC[C@@H](C(=O)N5CCCC5)C4)nc3[nH]2)c1` [Example 30, (R)-N-(3-(5-(3-(Pyrrolidine-1-carbonyl)piperidin-1-yl)-3H-imidazo[4,5-b]pyridin-2-yl)phenyl)methanesulfonamide]: the IC50 under setting [1] came to 1400 nM.

On to `CCc1cc(-c2nc3ccc(N4CCC[C@@H](C(=O)N5CCCC5)C4)nc3[nH]2)no1` [Example 32, (R)-(1-(2-(5-Ethylisoxazol-3-yl)-3H-imidazo[4,5-b]pyridin-5-yl)piperidin-3-yl)(pyrrolidin-1-yl)methanone], for which the IC50 under setting [1] was found to be 239 nM.

Take `O=C([C@H]1CN(c2ccc3nc(-c4cccc(C5CC5)n4)[nH]c3n2)CCO1)N1CCCC1` [Example 142, (R)-(4-(2-(6-Cyclopropylpyridin-2-yl)-3H-imidazo[4,5-b]pyridin-5-yl)morpholin-2-yl)(pyrrolidin-1-yl)methanone]: the IC50 under setting [1] stood at 24.8 nM.

Take `CN(C)C(=O)[C@H]1CN(c2ccc3nc(-c4ccnc(C5CC5)n4)[nH]c3n2)CC(F)(F)C1` [Example 164, (R)-1-(2-(2-Cyclopropylpyrimidin-4-yl)-3H-imidazo[4,5-b]pyridin-5-yl)-5,5-difluoro-N,N-dimethylpiperidine-3-carboxamide]: the IC50 under setting [1] amounted to 2800 nM.

Turning to `O=C([C@@H]1CCCN(c2ccc3nc(C4(N5CCOCC5=O)CC4)[nH]c3n2)C1)N1CCCC1` [Example 137, (R)-4-(1-(5-(3-(Pyrrolidine-1-carbonyl)piperidin-1-yl)-3H-imidazo[4,5-b]pyridin-2-yl)cyclopropyl)morpholin-3-one], under setting [1], the IC50 worked out at 1280 nM.

`O=C([C@@H]1CCCN(c2ccc3nc(C4(c5cccnc5)CCC4)[nH]c3n2)C1)N1CCCC1` [Example 88, (R)-(1-(2-(1-(Pyridin-3-yl)cyclobutyl)-3H-imidazo[4,5-b]pyridin-5-yl)piperidin-3-yl)(pyrrolidin-1-yl)methanone]: the IC50 under setting [1] came to 190 nM.

For `O=C([C@@H]1CCCN(c2ccc3nc(-c4cncc(F)c4)[nH]c3n2)C1)N1CCCC1` [Example 113, (R)-(1-(2-(5-Fluoropyridin-3-yl)-3H-imidazo[4,5-b]pyridin-5-yl)piperidin-3-yl)(pyrrolidin-1-yl)methanone], the IC50 under setting [1] stood at 137 nM.

For `C[C@@H](c1nc2ccc(N3CCC[C@@H](C(=O)N4CCCC4)C3)nc2[nH]1)n1cc(Cl)cn1` [Example 196-B, ((R)-1-(2-((S)-1-(4-Chloro-1H-pyrazol-1-yl)ethyl)-3H-imidazo[4,5-b]pyridin-5-yl)piperidin-3-yl)(pyrrolidin-1-yl)methanone hydrochloride], the IC50 (geometric mean, background for complete inhibition of DGAT2 obtained with 50 μM (1R,2R)-2-({3′-Fluoro-4′-[(6-fluoro-1,3-benzothiazol-2-yl)amino]-1,1′-biphenyl-4-yl}carbonyl)cyclopentanecarboxylic acid, hydrochloride, read-out: DGAT2 IC50) turned out to be 38.5 nM.

Turning to `COc1cccc(-c2nc3ccc(N4CCC[C@@H](C(=O)N5CCCC5)C4)nc3[nH]2)n1` [Example 37, (R)-(1-(2-(6-Methoxypyridin-2-yl)-3H-imidazo[4,5-b]pyridin-5-yl)piperidin-3-yl)(pyrrolidin-1-yl)methanone], the IC50 under setting [1] was determined as 12.6 nM.

As to `O=C([C@@H]1CCCN(c2ccc3nc(-c4cccc(C5CC5)n4)[nH]c3n2)C1)N1CC=CC1` [Example 158, (R)-(1-(2-(6-Cyclopropylpyridin-2-yl)-3H-imidazo[4,5-b]pyridin-5-yl)piperidin-3-yl)(2,5-dihydro-1H-pyrrol-1-yl)methanone], the IC50 under setting [1] was determined as 3.58 nM.

As for `O=C([C@@H]1CCCN(c2nc3[nH]c(-c4ccnc(C5CC5)n4)nc3cc2F)C1)N1CCCC1` [Example 136, (R)-(1-(2-(2-Cyclopropylpyrimidin-4-yl)-6-fluoro-3H-imidazo[4,5-b]pyridin-5-yl)piperidin-3-yl)(pyrrolidin-1-yl)methanone], the IC50 under setting [1] turned out to be 6.32 nM.

`N#Cc1cccc(-c2nc3ccc(N4CCC[C@@H](C(=O)N5CCCC5)C4)nc3[nH]2)c1` [Example 47, (R)-3-(5-(3-(Pyrrolidine-1-carbonyl)piperidin-1-yl)-3H-imidazo[4,5-b]pyridin-2-yl)benzonitrile]: the IC50 under setting [1] stood at 34.5 nM.

For `O=C([C@@H]1CCCN(c2ccc3nc(-c4nccc(C5CC5)n4)[nH]c3n2)C1)N1CCOCC1` [Example 149, (R)-(1-(2-(4-Cyclopropylpyrimidin-2-yl)-3H-imidazo[4,5-b]pyridin-5-yl)piperidin-3-yl)(morpholino)methanone], the IC50 under setting [1] came out at 766 nM.

These data come from patent US9296745B2, “Diacylglycerol acyltransferase 2 inhibitors” (Pfizer Inc., priority 2012, dated 2016).
